# Test results as given in patent publication US20070122344A1, “Intraoperative determination of nerve location” (University of Rochester Medical Center Office of Technology …, priority 2005, published 2007).
# Entries after “also recorded” stand apart in the source; their conditions may differ. Where two headings read alike, the source gives them in different places.
# Legend:
# mammals = conditions: cited from earlier work
# cavernous nerves = experiment: NIRF intraoperative imaging of rat cavernous nerves after injection of ICG into the crura; assay type: in vivo; conditions: rats
# Description: The area was examined for retrograde axonal transport at different time points, using a NIRF intraoperative imaging system (SPY®, Novadaq Technologies Inc., Mississauga, Ontario, Canada) that illuminates tissues with a 805 nm laser and captures images with a camera sensitive to infrared fluorescence. Near infrared microscopy and conventional histology were used to confirm the macroscopically identified fluorescent structures. […] (These were specific time points at which examinations were made. […] The fluorescent nerves were then excised.
# [1] = cited from earlier work
# [2] = mammals, several months after the treatment
Molecule,neuronal toxicity (mammals; [2]),neuronal toxicity (mammals; used in mammals),"identification of the cavernous nerves by fluorescence (cavernous nerves; ICG injected into both crura, examined at 6, 8, 12, 18, 24 and 36 hours post injection, NIRF imaging (SPY))","fluorescence of the cavernous nerves at longer post-injection periods (cavernous nerves; ICG injected into crura, e.g. 30 days post-injection)","distribution ([1]; after intravenous injection, with normal vascular permeability)",excretion ([1]; after intravenous injection),metabolism in the body ([1]; after intravenous injection),enterohepatic recirculation ([1]; in vivo),reabsorption from the intestine ([1]; in vivo)
N=C(N)c1ccc(/C=C/c2ccc(C(=N)N)cc2O)cc1 [Fluorogold],without evidence of neuronal toxicity,low evidence of neuronal toxicity,,,,,,,
Fast Blue,without evidence of neuronal toxicity,low evidence of neuronal toxicity,,,,,,,
"CC1(C)C(/C=C/C=C/C=C/C=C2\N(CCCCS(=O)(=O)O)c3ccc4ccccc4c3C2(C)C)=[N+](CCCCS(=O)(=O)[O-])c2ccc3ccccc3c21 [ICG, indocyanine green]",without evidence of neuronal toxicity,low evidence of neuronal toxicity,permitted identification of the nerves; also recorded: nerves were identified in situ,not detectable,remains intravascular,excreted exclusively by the liver,not metabolized,does not undergo enterohepatic recirculation,not reabsorbed
